Test results as given in patent US9708326B2, “Inhibitors of bruton's tyrosine kinase” (Pharmacyclics LLC, priority 2013, dated 2017).

Key:
Format in all cases: biochemical
Conditions in all cases: one of the methods outlined in Example 11a, 11b and 11c
[1] = target: LCK (Homo sapiens, UniProt P06239); assay: Inhibition of a panel of kinases: LCK in vitro kinase assay
Method: (§1) Btk kinase activity is determined using a time-resolved fluorescence resonance energy transfer (TR-FRET) methodology. Measurements are performed in a reaction volume of 50 μL using 96-well assay plates. Kinase enzyme, inhibitor, ATP (at the Km for the kinase), and 1 μM peptide substrate (Biotin-AVLESEEELYSSARQ-NH2) are incubated in a reaction buffer composed of 20 mM Tris, 50 mM NaCl, MgCl2 (5-25 mM depending on the kinase), MnCl2 (0-10 mM), 1 mM DTT, 0.1 mM EDTA, 0.01% bovine serum albumin, 0.005% Tween-20, and 10% DMSO at pH 7.4 for one hour. The reaction is quenched by the addition of 1.2 equivalents of EDTA (relative to divalent cation) in 25 μL of 1× Lance buffer (Perkin-Elmer). Streptavidin-APC (Perkin-Elmer) and Eu-labeled p-Tyr100 antibody (Perkin-Elmer) in 1× Lance buffer are added in a 25 μL volume to give final concentrations of 100 nM and 2.5 nM, respectively, and the mixture is allowed to incubate for one hour. The TR-FRET signal is measured on a multimode plate reader with an excitation wavelength (λEx) of 330 nm and detection wavelengths (λEm) of 615 and 665 nm. Activity is determined by the ratio of the fluorescence at 665 nm to that at 615 nm. For each compound, enzyme activity is measured at various concentrations of compound. Negative control reactions are performed in the absence of inhibitor in replicates of six, and two no-enzyme controls are used to determine baseline fluorescence levels Inhibition constants, Ki(app), ware obtained using the program BatchKi (Kuzmic et al. (2000), Anal. Biochem. 286:45-50). IC50s are obtained according to the equation: IC50={Ki(app)/(1+[ATP]/Km^ATP)}+[E]total/2;
(§2) For all kinases, [ATP]=Km^ATP, [Btk]total=0.5 nM and [Lck]total=6 nM.
(§3) Kinase activity is measured in vitro using electrophoretic mobility shift assay. The kinase reactions are assembled in a total volume of 25 μL in 384 well plates. The reactions comprise: BTK enzyme (1 nM, N-terminal His6-tagged, recombinant, full-length, human BTK purified from baculovirus Sf21 insect cell system), inhibitor, ATP (16 μM, the apparent Km for the kinase), fluorescently labeled peptide substrate (1 μM, FAM-GEEPLYWSFPAKKK-NH2) in a reaction buffer composed of 100 mM HEPES, pH7.5, 5 mM MgCl2 1 mM DTT, 0.1% bovine serum albumin, 0.01% Triton X-100, and 1% DMSO. The reaction is incubated for one hour and is quenched by the addition of 45 μL of termination buffer (100 mM HEPES, pH7.5, 0.01% Triton X-100, 30 mM EDTA). The terminated reactions are analyzed using 12 channel LabChip® 3000 microfluidic detection instrument (Caliper Life Sciences). The enzymatic phosphorylation of the peptide results in a change in net charge, enabling electrophoretic separation of product from substrate peptide. As substrate and product peptides are separated, two peaks of fluorescence are observed. Change in the relative fluorescence intensity of the substrate and product peaks is the parameter measured, reflecting enzyme activity. In the presence of an inhibitor, the ratio between product and substrate is altered: the signal of the product decreases, while the signal of the substrate increases.
(§4) Activity in each sample is determined as the product to sum ratio (PSR): P/(S+P), where P is the peak height of the product peptide and S is the peak height of the substrate peptide. For each compound, enzyme activity is measured at various concentrations (12 concentrations of compound spaced by 3× dilution intervals). Negative control samples (0%-inhibition in the absence of inhibitor) and positive control samples (100%-inhibition, in the presence of 20 mM EDTA) are assembled in replicates of four and are used to calculate %-inhibition values for each inhibitor at each concentration. Percent inhibition (Pinh) is determined using following equation: […]

[2] = target: EGFR (Homo sapiens, UniProt P00533); assay: Inhibition of a panel of kinases: EGFR in vitro kinase assay
EGFR, sequence (P00533 25-1210, species assumed): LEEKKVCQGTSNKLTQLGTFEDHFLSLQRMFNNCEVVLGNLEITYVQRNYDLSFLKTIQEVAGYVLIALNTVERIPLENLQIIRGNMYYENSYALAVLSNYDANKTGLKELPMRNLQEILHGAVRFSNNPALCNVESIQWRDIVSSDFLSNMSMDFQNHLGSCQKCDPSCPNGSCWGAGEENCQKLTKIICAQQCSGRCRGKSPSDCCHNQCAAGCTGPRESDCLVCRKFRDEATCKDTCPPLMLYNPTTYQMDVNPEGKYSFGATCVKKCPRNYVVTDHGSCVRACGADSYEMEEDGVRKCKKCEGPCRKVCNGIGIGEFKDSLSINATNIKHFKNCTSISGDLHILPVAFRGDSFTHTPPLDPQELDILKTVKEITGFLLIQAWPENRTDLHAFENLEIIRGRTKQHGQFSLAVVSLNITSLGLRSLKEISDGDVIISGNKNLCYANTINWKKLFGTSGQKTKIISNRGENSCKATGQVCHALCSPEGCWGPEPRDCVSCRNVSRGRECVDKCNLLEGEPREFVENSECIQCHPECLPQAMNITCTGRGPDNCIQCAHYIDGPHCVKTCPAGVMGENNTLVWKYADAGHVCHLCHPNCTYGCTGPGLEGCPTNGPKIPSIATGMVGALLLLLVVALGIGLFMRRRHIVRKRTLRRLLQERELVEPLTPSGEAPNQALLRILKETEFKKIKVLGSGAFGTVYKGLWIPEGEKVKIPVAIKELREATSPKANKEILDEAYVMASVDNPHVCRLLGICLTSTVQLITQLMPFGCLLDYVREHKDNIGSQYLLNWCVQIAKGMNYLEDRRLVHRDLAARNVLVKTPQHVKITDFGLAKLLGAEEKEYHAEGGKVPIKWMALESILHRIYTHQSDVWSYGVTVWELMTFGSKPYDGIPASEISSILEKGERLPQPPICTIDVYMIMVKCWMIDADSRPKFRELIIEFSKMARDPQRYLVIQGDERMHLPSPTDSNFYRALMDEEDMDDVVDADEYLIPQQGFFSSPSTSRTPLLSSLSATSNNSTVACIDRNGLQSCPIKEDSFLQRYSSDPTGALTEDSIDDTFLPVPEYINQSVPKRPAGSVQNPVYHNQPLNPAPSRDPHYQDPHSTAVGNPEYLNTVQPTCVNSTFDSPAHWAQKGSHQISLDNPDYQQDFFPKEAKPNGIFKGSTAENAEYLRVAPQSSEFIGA

[3] = target: T1, BTK (Homo sapiens, UniProt Q06187); assay: Inhibition of a panel of kinases: BTK in vitro kinase assay
T1 construct: N-terminal His6-tagged, recombinant, full-length, human BTK; His6 (N); made in house; host or cells: baculovirus / Sf21 insect cells
T1 sequence (Q06187 whole entry): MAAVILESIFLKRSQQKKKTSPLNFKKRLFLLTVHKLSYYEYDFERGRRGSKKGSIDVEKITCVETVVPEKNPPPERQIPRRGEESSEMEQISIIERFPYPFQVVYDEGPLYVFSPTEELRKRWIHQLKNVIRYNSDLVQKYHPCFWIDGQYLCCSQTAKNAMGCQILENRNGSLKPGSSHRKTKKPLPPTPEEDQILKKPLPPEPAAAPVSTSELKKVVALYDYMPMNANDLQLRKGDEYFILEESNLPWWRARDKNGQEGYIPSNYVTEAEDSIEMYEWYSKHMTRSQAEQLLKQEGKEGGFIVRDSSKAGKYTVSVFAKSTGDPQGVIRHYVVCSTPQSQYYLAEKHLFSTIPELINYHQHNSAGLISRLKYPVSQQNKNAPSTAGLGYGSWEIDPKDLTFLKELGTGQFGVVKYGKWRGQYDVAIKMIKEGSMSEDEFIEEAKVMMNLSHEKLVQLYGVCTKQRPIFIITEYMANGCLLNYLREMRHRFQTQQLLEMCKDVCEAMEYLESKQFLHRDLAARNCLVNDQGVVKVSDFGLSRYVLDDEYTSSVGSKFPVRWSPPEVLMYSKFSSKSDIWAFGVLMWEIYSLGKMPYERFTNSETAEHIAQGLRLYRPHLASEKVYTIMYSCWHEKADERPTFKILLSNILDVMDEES
Method: as §1, §2, §3, §4

LCK, sequence (P06239 whole entry, species assumed): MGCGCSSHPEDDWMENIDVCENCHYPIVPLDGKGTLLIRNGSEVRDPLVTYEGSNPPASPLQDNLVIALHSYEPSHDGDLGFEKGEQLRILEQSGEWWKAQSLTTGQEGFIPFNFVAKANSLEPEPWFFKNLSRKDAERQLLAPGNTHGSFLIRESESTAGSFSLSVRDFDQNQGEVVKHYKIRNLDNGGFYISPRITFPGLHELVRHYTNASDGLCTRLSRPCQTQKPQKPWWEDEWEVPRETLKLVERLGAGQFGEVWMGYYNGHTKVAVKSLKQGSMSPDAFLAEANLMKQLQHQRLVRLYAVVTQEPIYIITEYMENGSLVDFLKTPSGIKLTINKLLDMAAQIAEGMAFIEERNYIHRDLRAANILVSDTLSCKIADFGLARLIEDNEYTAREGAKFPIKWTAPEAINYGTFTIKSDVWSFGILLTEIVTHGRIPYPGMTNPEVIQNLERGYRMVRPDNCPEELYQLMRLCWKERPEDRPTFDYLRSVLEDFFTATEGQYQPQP

IC50 [1] [nM]	IC50 [2] [nM]	IC50 [3] [nM]	SMILES
1000 to 10000	1000 to 10000	100 to 1000	C=CC(=O)Nc1cccc(-c2c[nH]c3cnc(Nc4ccc(OCCOC)cc4)nc23)c1 [Compound 60, N-(3-(2-(4-(2-methoxyethoxyl)phenylamino)-5H-pyrrolo[3,2-d]pyrimidin-7-yl)phenyl)acrylamide]
100 to 1000	1000 to 10000	< 100	C=CC(=O)Nc1cccc(-c2n[nH]c3cnc(Nc4ccc(OCCOC)cc4)nc23)c1 [Compound 54, N-(3-(5-(4-(2-methoxyethoxyl)phenylamino)-1H-pyrazolo[4,3-d]pyrimidin-3-yl)phenyl)acrylamide]
> 10000	1000 to 10000	< 100	C=CC(=O)Nc1cccc(-n2c(=O)[nH]c3cnc(Nc4ccc(OCCOC)cc4)nc32)c1 [Compound 43, N-(3-(2-(4-(2-methoxyethoxyl)phenylamino)-8-oxo-7H-purin-9(8H)-yl)phenyl)acrylamide]
1000 to 10000	1000 to 10000	< 100	CN(C)C/C=C/C(=O)Nc1cccc(-n2c(=O)[nH]c3cnc(Nc4ccc(F)cc4)nc32)c1 [Compound 48, (E)-4-(dimethylamino)-N-(3-(2-(4-fluorophenylamino)-8-oxo-7H-purin-9(8H)-yl)phenyl)but-2-enamide]

The remaining lines, values behind:

SMILES	IC50 [1] [nM]	IC50 [2] [nM]	IC50 [3] [nM]
CN(C)C/C=C/C(=O)N1CCC(n2c(=O)[nH]c3cnc(Nc4ccc(F)cc4)nc32)CC1 [Compound 35, (E)-9-(1-(4-(dimethylamino)but-2-enoyl)piperidin-4-yl)-2-(4-fluorophenylamino)-7H-purin-8(9H)-one]	1000 to 10000	> 10000	100 to 1000
COCCOc1ccc(Nc2ncc3[nH]c(=O)n(-c4cccc(NC(=O)/C=C/CN(C)C)c4)c3n2)cc1 [Compound 6, (E)-4-(dimethylamino)-N-(3-(2-(4-(2-methoxyethoxyl)phenylamino)-8-oxo-7H-purin-9(8H)-yl)phenyl)but-2-enamide]		1000 to 10000	< 100
C=CC(=O)Nc1cccc(-n2c(=O)[nH]c3cnc(Nc4ccc(F)cc4)nc32)c1 [Compound 17, N-(3-(2-(4-fluorophenylamino)-8-oxo-7H-purin-9(8H)-yl)phenyl)acrylamide]	> 10000	100 to 1000	< 100
CN(C)C/C=C/C(=O)N1CC(n2c(=O)[nH]c3cnc(Nc4ccc(F)cc4)nc32)C1 [Compound 23, (E)-9-(1-(4-(dimethylamino)but-2-enoyl)azetidin-3-yl)-2-(4-fluorophenylamino)-7H-purin-8(9H)-one]		> 10000	100 to 1000
C=CC(=O)N(C)c1cccc(-n2c(=O)[nH]c3cnc(Nc4ccc(OCCOC)cc4)nc32)c1 [Compound 13, N-(3-(2-(4-(2-methoxyethoxyl)phenylamino)-8-oxo-7H-purin-9(8H)-yl)phenyl)-N-methylacrylamide]	1000 to 10000	1000 to 10000	< 100
CN(C)C/C=C/C(=O)N1CCC[C@@H](n2c(=O)[nH]c3cnc(Nc4ccc(F)cc4)nc32)C1 [Compound 29, (R,E)-9-(1-(4-(dimethylamino)but-2-enoyl)piperidin-3-yl)-2-(4-fluorophenylamino)-7H-purin-8(9H)-one]	1000 to 10000	1000 to 10000	100 to 1000
